Measurements: ChEMBL document CHEMBL1129343, “Retinoic acid receptor beta,gamma-selective ligands: synthesis and biological activity of 6-substituted 2-naphthoic acid retinoids” (J Med Chem, 1996)

Columns and labels:
[1] = target: T1, Retinoic acid receptor alpha (Homo sapiens, UniProt P10276); assay: Apparent binding constant against Retinoic acid receptor alpha in HeLa cell GAl-4 transactivation assay; assay type: cell-based
T1 sequence (P10276 whole entry): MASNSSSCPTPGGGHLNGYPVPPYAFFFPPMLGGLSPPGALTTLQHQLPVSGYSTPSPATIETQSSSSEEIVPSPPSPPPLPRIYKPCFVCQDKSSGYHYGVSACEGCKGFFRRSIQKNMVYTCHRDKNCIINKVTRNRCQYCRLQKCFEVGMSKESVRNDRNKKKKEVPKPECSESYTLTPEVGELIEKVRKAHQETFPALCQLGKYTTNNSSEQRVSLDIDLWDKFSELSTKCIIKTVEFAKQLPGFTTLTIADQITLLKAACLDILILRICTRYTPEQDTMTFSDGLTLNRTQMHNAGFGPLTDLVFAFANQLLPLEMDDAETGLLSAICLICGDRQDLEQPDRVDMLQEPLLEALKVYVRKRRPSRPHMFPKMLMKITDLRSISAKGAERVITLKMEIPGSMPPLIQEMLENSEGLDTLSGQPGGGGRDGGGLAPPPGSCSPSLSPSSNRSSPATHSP

[2] = target: T2, Retinoic acid receptor beta (Homo sapiens, UniProt P10826); assay: Apparent binding constant for Retinoic acid receptor beta in HeLa cellGAL-4 transactivation assay; assay type: cell-based
T2 sequence (P10826 whole entry): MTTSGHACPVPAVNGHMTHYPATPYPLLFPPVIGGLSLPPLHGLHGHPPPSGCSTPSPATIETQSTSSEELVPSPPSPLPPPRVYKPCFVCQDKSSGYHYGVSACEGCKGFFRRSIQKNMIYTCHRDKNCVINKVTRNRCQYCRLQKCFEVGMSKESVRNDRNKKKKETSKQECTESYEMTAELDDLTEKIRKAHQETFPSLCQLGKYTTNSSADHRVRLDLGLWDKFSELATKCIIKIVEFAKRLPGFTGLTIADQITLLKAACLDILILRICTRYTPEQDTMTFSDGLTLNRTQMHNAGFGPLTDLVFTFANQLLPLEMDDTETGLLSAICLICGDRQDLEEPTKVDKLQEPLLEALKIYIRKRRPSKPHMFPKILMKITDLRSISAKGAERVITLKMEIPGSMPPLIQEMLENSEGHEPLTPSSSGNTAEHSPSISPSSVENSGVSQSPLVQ

With `CC1(C)CCC(C)(C)c2cc(/C(=N/NS(C)(=O)=O)c3ccc4cc(C(=O)O)ccc4c3)ccc21` the Kd [1] was 11 µM and the Kd [2] was 1.27 µM.
